Series [1] can be described thus: Body weight, organ weights and feed intake of db/db mice. In kind it is in vivo. Here is the method:
Experiment 1: mice (n=25) were fed high-fat (>40% energy from fat), isocaloric, isonitrogenous diets containing 0, 100, 200, 400, and 800 mg of a racemic (±) ABA mixture/kg diet for 36 days (Table 1) (Sigma). These doses were chosen based on the standard concentrations of TZDs utilized in the treatment of NIDDM. The mice were weighed and their food intake was recorded daily. On day 36 of the study fasted mice (12 h) were bled through the caudal vein and fasting blood glucose concentrations were determined. To investigate the ability of ABA to normalize glucose concentrations, an intraperitoneal glucose tolerance test (IPGTT) was performed on day 36 on the fasted mice. Briefly, mice were bled at 0, 10, 25, and 45 minutes following the administration of glucose (2 g/kg) for measurement of plasma glucose levels. […] Weights were recorded for WAT, interscapular brown adipose tissue (BAT), and liver.
Experiment 2: The ABA dose utilized (100 mg ABA/kg) was based on the results obtained from the IPGTT of the ABA titration study (i.e., Experiment 1). Mice in experiment 2 were fed high-fat diets containing 0 or 100 mg ABA/kg for 36 days. Their body weights and food intake was recorded daily, and blood was collected on day 36 of the study during an IPGTT. This IPGTT included one additional 100 minutes time point. […] Weights were recorded for abdominal WAT, BAT, and liver.

Series [2] concerns dextran sodium sulfate (DSS)-induced colitis. Nature of the series: DSS-induced colitis in C57BL/6J mice: disease activity, macroscopic scores, histopathology. In kind it is in vivo. On the procedure: Six to eight week old C57BL/6J mice (n=20) and were housed at the animal facilities at Virginia Polytechnic Institute and State University in a room maintained at 75° F., with a 12:12 h light-dark cycle starting from 6:00 AM. All experimental procedures were approved by the Institutional Animal Care and Use Committee of Virginia Polytechnic Institute and State University and met or exceeded requirements of the Public Health Service/National Institutes of Health and the Animal Welfare Act. C57BL/6J mice were fed AIN-93G-based diets with or without 100 mg/kg of a racemic ABA mixture for 35 days prior to induction of colitis with water containing 2.5% dextran sodium sulfate (DSS), […] (ICN Biomedicals, Aurora, Ohio). After the DSS challenge mice were weighed on a daily basis and examined for clinical signs of disease associated with colitis (i.e., perianal soiling, rectal bleeding, diarrhea, and piloerection). For the DSS challenge, the disease activity indices and rectal bleeding scores were calculated using a modification of a previously published compounded clinical score (50). Briefly, the disease activity index consisted of a scoring for diarrhea and lethargy (0-3), whereas rectal bleeding consisted of a visual observation of blood in feces and the perianal area (0-4). Mice in the DSS study were euthanized on day 7 of the DSS challenge. On day 7 blood mice were euthanized by CO2 asphyxiation and blood was withdrawn from the heart. Spleen and mesenteric lymph nodes (MLN) were scored based on size and macroscopic inflammatory lesions (0-3), excised, and then crushed to produce single-cell suspensions for flow cytometry.
Colonic sections were fixed in 10% buffered neutral formalin, later embedded in paraffin, and then sectioned (5 μm) and stained with H&E stain for histologic examination. Colons were graded with a compounded histologic score including the extent of (1) lymphocyte infiltration, (2) mucosal thickening, and (3) epithelial cell erosion. The sections were graded with a score of 0-4 for each of the previous categories and data were analyzed as a normalized compounded score.

Series [3] deals with CD8+ T cells. The experiment in a line: CFSE flow cytometry proliferation assay, Concanavalin A-stimulated splenocytes, CD8+ T cells. In kind it is cell-based, mice. To be noted: 100 mg ABA/kg diet; first 4 generations. Here is the method: Single cell suspensions were prepared from the spleen by gently crushing the spleens excised during the necropsy procedure between the frosted ends of microscope glass slides previously autoclaved. Tissue debris were removed by settling, erythrocytes were eliminated by hypotonic lysis and cells finally resuspended in complete RPMI (cRPMI, 10% fetal bovine serum (Hyclone, Logan, Utah), 25 mM HEPES buffer (Sigma, St. Louis, Mo.), 100 units/ml penicillin (Sigma), […] streptomycin (Sigma), 1 mM sodium pyruvate (Sigma), 1 mM nonessential aminoacids (Sigma), and 2 mM essential amino acids (Mediatech), and enumerated with a Coulter Z1 Single Particle Counter (Beckman Coulter, Miami, Fla.). […]
Splenocytes at 10^6 cells/ml were seeded in 96-well, round-bottom microtiter plates and incubated incomplete RPMI with or without Concanavalin A (Sigma) at 2.5 μg/ml. […] Following 2 washes in Fluorescence activated cell sorting (FACS) buffer, cells were incubated with streptavidin-PeCy5 (Pharmingen, San Diego, Calif.) for the biotinylated anti-mouse CD4 antibody. Cells were analyzed by 3-color flow cytometry (CFSE, phycoerythrin and PeCy5) in a FACScalibur instrument (Becton Dickinson). Ten thousand events were acquired, and data were analyzed using the Cell Quest Pro™ software (Becton Dickinson). Proliferation was assessed by the decrease in fluorescent intensity of CFSE staining. […]

For series [4], the system named is db/db mice. Nature of the series: Liver histology, hepatic steatosis by NASH scoring method. The format is in vivo. Conditions: day 36, P<0.02. An excerpt:
Hepatic and adipose sections were fixed in 10% buffered neutral formalin, embedded in paraffin, cut at thicknesses of 7 microns and later stained with hematoxylin and eosin (H&E) for histological examination of adipocyte hypertrophy and inflammatory lesions. Hepatic sections were scored based on the amount of lipodystrophy observed according to the Nonalcoholic steatohepatitis (NASH) scoring method, with a score of 0 signifying <5% of the cells contain lipid droplets and a score of 4 signifying that >75% of the cells contained lipids and a magnification of 400× (23). The final score was the average of five randomly chosen fields. The area of adipocytes from WAT was analyzed using Sigma Pro® 5.0 software at a magnification of 100×, and macrophage infiltration was determined by averaging the number of macrophages observed in five different fields at 400×.

Marks after values point to notes of the source that are not given here.

Data on 1 compound can be found in patent US8367727B2, “Method of using abscisic acid to treat diseases and disorders” (priority 2006, dated 2013).

Turning to `CC1=CC(=O)CC(C)(C)C1(O)/C=C/C(C)=C\C(=O)O` (racemic) [ABA, abscisic acid], the “final body weight less than control mice” value in series [1] (41.34 g vs 43.54 g, not statistically significant) is “approximately 2.2 grams”. The Total feed intake result in series [1] (between treatment groups) is given as “did not differ significantly”. In addition, in series [1] (db/db mice, 100 mg ABA/kg diet, day 36), the Final body weight result is “no significant differences in body weights”. In addition, the “disease activity index (DAI)” value in series [2] (100 mg/kg diet 35 days, then 7 days 2.5% DSS) is “significantly reduced disease activity index”. Further, the body weight loss entry in series [2] (DSS challenge, ABA vs control) was “no significant differences in body weight loss”. In series [2] (colon histology, DSS colitis), the Epithelial erosion result was “significantly reduced”, the leukocyte infiltration entry is listed as “significantly reduced” and the mucosal thickening entry is given as “significantly reduced”. Besides, in series [2] (day 7 of DSS), the “colonic inflammation, macroscopic score” value is “significantly reduced colonic inflammation” and the “spleen or MLN macroscopic score” value is on record as “no significant effect on the spleen or MLN”. In addition, in series [3], the “CD8+ T cells RPI1” value was 5.261*. The “hepatic steatosis (NASH scoring)” value in series [4] is on record as “significantly mitigated”.
